{
  "source": "patent US8778927B2",
  "about": "“Smoothened antagonism for the treatment of hedgehog pathway-related disorders” (Novartis AG, priority 2008, dated 2014)",
  "key": {"[1]": {"test_system": "Ptch+/−p53−/− medulloblastoma allograft", "assay": "Ptch+/−p53−/− medulloblastoma allograft model, continuous dosing", "format": "in vivo, mouse", "conditions": "100 mg/kg bid, 25 days, FIG. 1", "from_the_text": "(§1) Mouse medulloblastoma cells (1.0−5.0×10^6), dissociated directly from tumor fragments originally derived from spontaneously arising medulloblastomas in Ptch+/−p53−/−, Ptch+/−Hic+/− or Ptch+/− mice, were inoculated subcutaneously into the right flank of Harlan nu/nu mice. Treatment was initiated approximately 7-10 days post implantation. Animals were randomized into treatment groups with similar mean tumor volumes that ranged from approximately 250-300 mm3. Tumor volumes (mm3) and body weights (g) were recorded two or three times per week from all groups for analysis. Dose was body weight adjusted at time of dosing. Comparisons between treatment groups was performed using a non-parametric Kruskal-Wallis/Wilcoxon Rank Sum Test.\nTumors were calipered in two dimensions, and the volumes were calculated using the formula: (length×width2)/2, where length is the longer of the two measurements and width is the shorter one. Percent treatment/control (% T/C) values were calculated using the following formula: % T/C=100×ΔTf−i/ΔCf−i if ΔTf−i>0, % T/T0=100×ΔTf−i/T0 if ΔTf−i<0 (regression). A partial responder (PR) was defined as an animal whose tumor was less than 50% of the initial tumor volume by the end of the study. An animal with no palpable tumor by the end of study is defined as a complete responder (CR). […]"}, "[2]": {"test_system": "Ptch+/−Hic+/− medulloblastoma allograft", "assay": "Ptch+/−Hic+/− medulloblastoma allograft model, continuous dosing", "format": "in vivo, mouse", "conditions": "for number of sustained complete regressions: dosed day 10 to day 56, day 56", "from_the_text": "as §1\n(§2) Tumors were calipered in two dimensions, and the volumes were calculated using the formula: (length×width2)/2, where length is the longer of the two measurements and width is the shorter one. Percent treatment/control (% T/C) values were calculated using the following formula: % T/C=100×ΔTf−i/ΔCf−i if ΔTf−i>0, % T/T0=100×ΔTf−i/T0 if ΔTf−i<0 (regression). A partial responder (PR) was defined as an animal whose tumor was less than 50% of the initial tumor volume by the end of the study. An animal with no palpable tumor by the end of study is defined as a complete responder (CR).\nTreatments started on day 7 post implantation (5 million cells/animal). Compound 1 was administered po at 5 mg/kg bid, 10 mg/kg bid, 20 mg/kg qd, 20 mg/kg bid, 40 mg/kg bid and 80 mg/kg bid for the length of study. Compound 2 was administered at 100 mg/kg bid for the length of study. Vehicle control of Compound 1 was 0.5% methylcellulose 0.5% Tween 80 in water. The initial group size consisted of 8 animals. The vehicle group was taken down 10 days after treatment (tumors greater than 10% of mouse body weight).\nSustained regressions listed in the Table 1 represent number of complete responses still present at the end of study on day 47.\nTwo additional Smo inhibitors, Compound 3 and Compound 4 were evaluated in follow-up studies in the Ptch+/−Hic+/− model upon continous dosing."}, "[3]": {"test_system": "Ptch+/− medulloblastoma allograft", "assay": "Ptch+/− medulloblastoma allograft model, continuous dosing", "format": "in vivo, mouse", "conditions": "100 mg/kg bid, day 48", "from_the_text": "as §1, §2\nTreatments started on day 7 post implantation (5 million cells/animal). Compound 1 was administered po at 10 mg/kg qd, 20 mg/kg qd, 40 mg/kg qd, 80 mg/kg qd and 160 mg/kg qd for the length of study. Compound 2 was administered at 100 mg/kg bid for the length of study. Vehicle control of Compound 1 was 0.5% methylcellulose 0.5% Tween 80 in water. The initial group size consisted of 8 animals. The vehicle group was taken down 7 days after treatment (tumors greater than 10% of mouse body weight). Similar resistance was seen to that observed with the Ptc+/−Hic+/− model, with a subset of the complete responders growing back and others showing complete regression (Table 2). Sustained regression listed in Table 2 represent number of complete regressions still present at the end of study on day 48."}, "[4]": {"test_system": "sensitive medulloblastoma tumor cells", "assay": "ex-vivo medulloblastoma proliferation assay (3H thymidine, 48 h), sensitive tumor cells", "format": "cell-based", "conditions": "Mus musculus, Sensitive tumor, Table 3", "method": "(§3) The effect of statins (e.g., simvastatin, flustatin) on the proliferation of medulloblastoma cells derived from sensitive and resistant Ptch+/− cells was evaluated by using an “ex-vivo medulloblastoma proliferation assay.” Using Ptch+/−p53−/−, Ptch+/−Hic+/− or Ptch+/− medulloblastoma tumors freshly harvested from allografted nude mice, we have developed a short-term 48 h proliferation assay that enables us to assess the in vitro potency of Smo inhibitors. The read-out for proliferation uses incorporation of 3H thymidine. The assay reflects the in vivo sensitivity of tumor cells to Compound 1.\n(§4) The effect of PI3K inhibitors (e.g., compounds such as Compound A) on the proliferation of medulloblastoma cells derived from sensitive and resistant medulloblastoma cells was evaluated by using an “ex-vivo medulloblastoma proliferation assay,” as described above."}, "[5]": {"test_system": "resistant medulloblastoma tumor cells", "assay": "ex-vivo medulloblastoma proliferation assay (3H thymidine, 48 h), resistant tumor cells", "format": "cell-based, mouse", "method": "as §3, §4"}, "[6]": {"test_system": "Akt and S6 phosphorylation", "assay": "Western blot of ex-vivo medulloblastoma assay", "format": "cell-based, mouse", "conditions": "sensitive and resistant cells, FIG. 5"}, "[7]": {"test_system": "Ptch+/−Hic+/− medulloblastoma allograft", "assay": "combination of Smo inhibitor and PI3K inhibitor in Ptch+/−Hic+/− medulloblastoma allograft model", "format": "in vivo, mouse", "from_the_text": "Mouse medulloblastoma cells (1.0-5.0×10^6), dissociated directly from tumor fragments originally derived from spontaneously arising medulloblastomas in Ptch+/-p53-/-, Ptch+/-Hic+/- or Ptch+/- mice, were inoculated subcutaneously into the right flank of Harlan nu/nu mice. Treatment was initiated approximately 7-10 days post implantation. Animals were randomized into treatment groups with similar mean tumor volumes that ranged from approximately 250-300 mm3. Tumor volumes (mm3) and body weights (g) were recorded two or three times per week from all groups for analysis. Dose was body weight adjusted at time of dosing. Comparisons between treatment groups was performed using a non-parametric Kruskal-Wallis/Wilcoxon Rank Sum Test. Tumors were calipered in two dimensions, and the volumes were calculated using the formula: (length×width2)/2, where length is the longer of the two measurements and width is the shorter one. […] A partial responder (PR) was defined as an animal whose tumor was less than 50% of the initial tumor volume by the end of the study. An animal with no palpable tumor by the end of study is defined as a complete responder (CR). Next, a combination of Compound 1 and Compound A was explored in the Ptch+/-Hic+/- medulloblastoma allograft model. […] Animals treated with vehicle control and with compound A had to be sacrificed around day 20 and 25, respectively, because their tumor volume reached 1500 mm3. […] Similar results were obtained for animals treated with Compound 1 alone for the first 10 days, followed by single agent treatment with Compound A (data not shown). […] Next, a combination of Compound 1 and Compound B was explored in the Ptch+/-Hic+/- medulloblastoma allograft model. […] Animals treated with vehicle control and with compound B reached the endpoint around day 12 to 15, respectively, because their tumor volume reached 700 mm3."}, "[8]": {"conditions": "Mus musculus, Resistant tumor, Table 3"}},
  "note": "“And” between values parts separate entries of the source, which are not always exact repeats. Identical values can stand only once. “Also recorded” adds a separate entry of the source.",
  "data": [
    {"smiles": "COc1cc(OC)cc(C(=O)Nc2ccc(Cl)c(-c3nc4cc(N(C)C)ccc4[nH]3)c2)c1", "note": "[Compound 2, N-[4-Chloro-3-(5-dimethylamino-1H-benzoimidazol-2-yl)-phenyl]-3,5-dimethoxy-benzamide, reference compound]", "values": [
      {"measurement": "tumor response on continuous dosing", "setting": "[1]", "value": "initially caused regression, followed by tumor regrowth"},
      {"measurement": "sustained regressions (complete responses still present at end of study)", "setting": "[2]; 100 mg/kg bid po, day 47", "value": "0/8"},
      {"measurement": "sustained regressions (complete regressions still present at end of study)", "setting": "[3]", "value": "0/8"}
    ]},
    {"smiles": "Cc1c(Cc2ccccc2)nnc(N2CCN(c3cnc(C(C)(C)O)cn3)[C@H](C)C2)c1C", "note": "[Compound 3, 2-[(R)-4-(6-Benzyl-4,5-dimethyl-pyridazin-3-yl)-2-methyl-3,4,5,6-tetrahydro-2H-[1,2]bipyrazinyl-5′-yl]-propan-2-ol]", "values": [
      {"measurement": "number of sustained complete regressions", "setting": "[2]; 40 mg/kg bid", "value": "3/8"},
      {"measurement": "number of sustained complete regressions", "setting": "[2]; 40 mg/kg qd", "value": "0/8"},
      {"measurement": "number of sustained complete regressions", "setting": "[2]; 60 mg/kg qd", "value": "0/8"},
      {"measurement": "number of sustained complete regressions", "setting": "[2]; 80 mg/kg qd", "value": "0/8"},
      {"measurement": "number of sustained complete regressions", "setting": "[2]; 100 mg/kg qd", "value": "3/8"},
      {"measurement": "tumor response on continuous dosing", "setting": "[2]; follow-up studies, continuous dosing", "value": "initially induced tumor regression followed by tumor regrowth in the presence of compound"}
    ]},
    {"smiles": "Nc1cc(C(F)(F)F)c(-c2cc(N3CCOCC3)nc(N3CCOCC3)n2)cn1", "note": "[Compound A, 5-(2,6-di-morpholin-4-yl-pyrimidin-4-yl)-4-trifluoromethyl-pyridin-2-ylamine]", "values": [
      {"measurement": "IC50", "setting": "[4]", "value": 0.2, "unit": "µM"},
      {"measurement": "IC50", "setting": "[5]; [8]", "value": 0.22, "unit": "µM"},
      {"measurement": "IC50", "setting": "[5]; Mus musculus, ptch+/− Hic+/−, Resistant, Table 4", "value": 0.3, "unit": "µM"},
      {"measurement": "IC50", "setting": "[5]; ptch+/− Hic+/−, Resistant, Table 4", "value": "0.17 µM and 0.15 µM"},
      {"measurement": "inhibition of proliferation, sensitive compared with resistant tumors", "setting": "[5]; sensitive and resistant tumors", "value": "inhibited both sensitive and resistant tumors with similar IC50s"},
      {"measurement": "inhibition of Akt and S6 phosphorylation", "setting": "[6]", "value": "inhibits Akt and S6 phosphorylation in both sensitive and resistant cells; also recorded: inhibited Akt and S6 phosphorylation both in sensitive and resistant tumors at similar concentrations"},
      {"measurement": "effect on tumor growth", "setting": "[7]; 60 mg/kg qd, FIG. 6A", "value": "only a moderate effect on tumor growth compared to vehicle control"},
      {"measurement": "time to endpoint (tumor volume >1500 mm3)", "setting": "[7]; 60 mg/kg qd, FIG. 6B", "value": "~25", "unit": "days"}
    ]},
    {"smiles": "Cn1c(=O)n(-c2ccc(C(C)(C)C#N)cc2)c2c3cc(-c4cnc5ccccc5c4)ccc3ncc21", "note": "[Compound B, 2-methyl-2-[4-(3-methyl-2-oxo-8-quinolin-3-yl-2,3-dihydro-imidazo[4,5-c]quinolin-1-yl)-phenyl]-propionitrile]", "values": [
      {"measurement": "effect on tumor growth", "setting": "[7]; 40 mg/kg qd, FIG. 7A", "value": "no effect on tumor growth compared to vehicle control"},
      {"measurement": "time to endpoint (tumor volume >700 mm3)", "setting": "[7]; 40 mg/kg qd, FIG. 7B", "value": "~15", "unit": "days"}
    ]},
    {"smiles": "CCC(C)(C)C(=O)O[C@H]1C[C@@H](C)C=C2C=C[C@H](C)[C@H](CC[C@@H]3C[C@@H](O)CC(=O)O3)[C@H]21", "note": "[Simvastatin, reference compound]", "values": [
      {"measurement": "IC50", "setting": "[4]", "value": 0.004, "unit": "µM"},
      {"measurement": "IC50", "setting": "[5]; [8]", "value": 0.004, "unit": "µM"}
    ]}
  ]
}
